From patent US9567371B2, “Short beta-defensin-derived peptides” (Yeda Research and Development Co. Ltd., priority 2009, dated 2017)
Peptide text beside a SMILES is read from it.

Key:
MBA-15 cells = test: SDF-1, bFGF and HGF secretion by stromal cells (ELISA of supernatants); format: cell-based, mouse; settings: 10 μM
Procedure: FIGS. 7A-7F. Effect of TL-1, AK-1 and cyclic TL-1 on SDF-1, bFGF and HGF secretion by different stromal cell lines. MS-5, MBA-15 and MG-63 cells were co-cultured with 10 μM TL-1, AK-1 or cyclic TL-1 in the serum free medium for 6 hrs, or without added peptide (UT). Levels of SDF-1 (A-C), bFGF (D) and HGF (E, F) were detected in the collected supernatants by ELISA. Data shown are the mean±SD of 2 separate experiments. *P<0.05 compared to control.
SDF-1 levels in tested samples were determined by ELISA as described (Kalinkovich, A., et al., 2006) where the K15C monoclonal antibodies (mAb, INRA, Paris, France) recognizing the first three amino acids of SDF-1 were utilized as a capture Ab (10 μg/mL) in order to measure levels of intact, non-cleaved SDF-1. Levels of basic FGF (bFGF) and HGF in tested samples were determined by using corresponding capture mAbs and polyclonal biotynilated Abs (R&D Systems) as recommended by the manufacturer. In order to examine SDF-1, bFGF and HGF levels in cell supernatants, MS-5, MBA-15 and MG-63 cells were seeded in 24-well Costar wells and cultivated in RPMI 1640 or αMEM Eagle medium, respectively, with 10% FCS. When the cells reached confluence, the medium was changed to serum free medium and cells were cultivated for additional 6 hrs in the presence of various concentrations of the peptides. Medium samples were collected and centrifuged 10 min at 6000×g at 4° C. to remove cell debris. Supernatants were collected and kept at −70° C. until tested.
Because BM stromal cells, such as endosteal bone lining osteoblasts and endothelial cells are the main source of human and murine SDF-1, the capability of the peptides to affect SDF-1 secretion by mouse stromal MS-5 and MBA-15 cells, and human osteoblast MG-63 cells was examined.
In order to examine the capability of the peptides to induce secretion of other proteins, the levels of Hepatocyte growth factor (HGF) and Basic fibroblast growth factor (bFGF) were detected in the same supernatants.

C57BL/6 mice = test: Mobilization assay: WBC number in peripheral blood; format: in vivo, mouse
Procedure: FIG. 2. Dose-response effect of TL-1 and AK-1 on mobilization of WBC. C57BL/6 mice were s.c. injected with 1, 5 or 10 mg/kg of TL-1 or AK-1. Control mice were injected with phosphate buffered saline (PBS). After 1-1.5 h, mice were sacrificed and WBC number in the PB was calculated. Data shown are the mean±SD of 3 separate experiments. *P<0.05 compared to control.
FIG. 4. TL-1 synergizes with G-CSF to mobilize WBC. C57BL/6 mice were s.c. injected with G-CSF 2.5 μg/twice a day for four days. Eighteen hrs after the last injection mice were s.c. injected with 5 mg/kg of either TL-1, AK-1 or AMD3100 (AMD), sacrificed 1.5 h later, and the number of WBC was calculated. Control mice were injected with PBS or with TL-1, AK-1 or AMD3100 without pre-treatment with G-CSF. […]
C57BL/6 mice were injected s.c. with PBS (control), 5 mg/kg AMD3100, or one of the peptides TL-1, cyclic TL-1 and AK-1, at various doses. […] Peripheral blood (PB) was collected from mice by cardiac puncture into heparin containing tubes and the number of white blood cells (WBC) per 1 mL of blood was calculated. […] Colonies, reflecting colony-forming units (CFU), were scored after 7 days.
The cell mobilizing potential of the peptides was examined in intact C57BL/6 mice, using the protocol applied for AMD3100 (Broxmeyer, H. E., et al., 2005). First, the effect of different doses of the peptides was evaluated. […]

`N=C(N)NCCC[C@@H]1NC(=O)CNC(=O)[C@H](CCCNC(=N)N)NC(=O)[C@H](CCCCN)NC(=O)[C@H](CCCCN)NC(=O)[C@H](CCCNC(=N)N)NC(=O)[C@H](CCCNC(=N)N)NC(=O)[C@H](CS)NC(=O)[C@H](CS)NC(=O)[C@H](CCCCN)NC1=O` [cyclic TL-1, 1,10-cyclo[RGRKCCRRKK]] (cyclo(CCRRKKRGRK)) was tested, and the “HGF secretion into supernatants” value (MBA-15 cells) was “induced elevation”, the “levels of SDF-1 in supernatants” value (MBA-15 cells; compared with untreated cells) was “increased the levels of SDF-1 secretion by MS-5 and MBA-15 cells but much less as compared with TL-1 and AK-1” and the “WBC mobilization upon simultaneous injection with AMD3100” value (C57BL/6 mice; 5 mg/kg s.c. each) was “decreased its mobilizing capacity”. For the same molecule, the “WBC mobilization, dose response” value (C57BL/6 mice; all tested doses: 1, 5 and 10 mg/kg s.c.) was “did not induce WBC mobilization”.
